Marks after values point to notes of the source that are not given here.
Assays:
[1] = system: spontaneous activities of mice; experiment: Effects on spontaneous activities of mice; conditions: Mean ± SD, n=10
Experimental: Mice weighing 18-22 g, half male and half female, were placed in the laboratory 24 hours before the test to adapt to the environment. The room temperature was controlled at 24±2° C. Animals were fasted for 8 hours before testing, and then placed in a transparent cage. The number of spontaneous activities of mice was counted by an automatic device (model XZ-4 by Drug Research Institute of China Academy of Medical Sciences). Mice were pre-screened by counting their spontaneous activities for five minutes and unqualified mice were excluded. A total of 110 mice were selected and divided into 11 groups with 10 mice in each group.
Chlorpromazine (3 mg/kg) was used as the positive control. The dose volume was 0.2 mL/10 gram and infusion rate was 0.2 mL/10 seconds.

[2] = Phase II clinical trial, intravenous, adverse events; assay type: in vivo, human; conditions: human phase II, I.V.
Experimental: A double-blinded randomized controlled trial was carried out to compare the adverse events between the I.V. levo-ornidazole and racemate treatment groups. […] The high rate of adverse events observed from the treatment by the racemic drug caused patient treatment non-compliant, which could be dangerous for life-threatening infections.

[3] = system: thiopental-induced hypnosis; experiment: Effects on thiopental-induced hypnosis; conditions: mice, 30 min before sodium thiopental 40 mg/kg IP, Mean ± SD, n=10
Experimental: A total of 70 mice were divided into 7 groups with 10 mice in each group (half male and half female), and animals were fasted for 8 hours before study. Vehicle control and ornidazole enantiomers were injected intraperitoneal (IP), after 30 minutes, sodium thiopental was then given IP: at 40 mg/kg.
Levo-, dextro-ornidazole and racemate are studied and compared in 6 treatment groups at 2 different dose levels of 40 and 80 mg/kg. The dose volume is 0.2 mL/10 gram and infusion rate is 0.2 mL/10 seconds.

[4] = Acute toxicity in mice (LD50); conditions: mouse, in vivo

Cc1ncc([N+](=O)[O-])n1CC(O)CCl (racemic) [Racemic ornidazole, 1-(3-Chloro-2-hydroxypropyl)-2-methyl-5-nitroimidazole]
Spontaneous Activities (per 5 min) ([1]; 40 mg/kg i.v., 0.5 h post-dose): 79 ± 26 per 5 min
Spontaneous Activities (per 5 min) ([1]; 40 mg/kg i.v., 1 h post-dose): 56 ± 37 per 5 min
Spontaneous Activities (per 5 min) ([1]; 40 mg/kg i.v., 2 h post-dose): 63 ± 23 per 5 min
Spontaneous Activities (per 5 min) ([1]; 40 mg/kg i.v., 3 h post-dose): 62 ± 24 per 5 min
Spontaneous Activities (per 5 min) ([1]; 40 mg/kg i.v., 4 h post-dose): 72 ± 35 per 5 min
Spontaneous Activities (per 5 min) ([1]; 80 mg/kg i.v., 0.5 h post-dose): 48 ± 35 per 5 min
Spontaneous Activities (per 5 min) ([1]; 80 mg/kg i.v., 1 h post-dose): 26 ± 19 per 5 min
Spontaneous Activities (per 5 min) ([1]; 80 mg/kg i.v., 2 h post-dose): 32 ± 21 per 5 min
Spontaneous Activities (per 5 min) ([1]; 80 mg/kg i.v., 3 h post-dose): 55 ± 27 per 5 min
Spontaneous Activities (per 5 min) ([1]; 80 mg/kg i.v., 4 h post-dose): 61 ± 20 per 5 min
Spontaneous Activities (per 5 min) ([1]; 160 mg/kg i.v., 0.5 h post-dose): 29 ± 17 per 5 min
Spontaneous Activities (per 5 min) ([1]; 160 mg/kg i.v., 1 h post-dose): 22 ± 14 per 5 min
Spontaneous Activities (per 5 min) ([1]; 160 mg/kg i.v., 2 h post-dose): 21 ± 12 per 5 min
Spontaneous Activities (per 5 min) ([1]; 160 mg/kg i.v., 3 h post-dose): 30 ± 13 per 5 min
Spontaneous Activities (per 5 min) ([1]; 160 mg/kg i.v., 4 h post-dose): 51 ± 23 per 5 min
Adverse events reported (total) [2]: 42
Appetite drop, # of Patients with AE [2]: 0
Appetite drop, Incidence (%) [2]: 0.00%
Dizziness, # of Patients with AE [2]: 5
Dizziness, Incidence (%) [2]: 3.60%
Dry mouth, # of Patients with AE [2]: 2
Dry mouth, Incidence (%) [2]: 1.44%
Headache, # of Patients with AE [2]: 1
Headache, Incidence (%) [2]: 0.72%
Hypersomnia, # of Patients with AE [2]: 10
Hypersomnia, Incidence (%) [2]: 7.19^## %
Hypodynamia, # of Patients with AE [2]: 1
Hypodynamia, Incidence (%) [2]: 0.72%
Nausea, # of Patients with AE [2]: 1
Nausea, Incidence (%) [2]: 0.72%
Stomach discomfort, # of Patients with AE [2]: 1
Stomach discomfort, Incidence (%) [2]: 0.72%
Total incidence rate of adverse events [2]: 21.58%
Vertigo, # of Patients with AE [2]: 17
Vertigo, Incidence (%) [2]: 12.23^## %
Vomiting, # of Patients with AE [2]: 1
Vomiting, Incidence (%) [2]: 0.72%
WBC decline, # of Patients with AE [2]: 3
WBC decline, Incidence (%) [2]: 2.16%
Patients with adverse events (total) ([2]; out of 136 (levo) / 139 (racemate) patients): 30 patients
Sleeping Time ([3]; 40 mg/kg IP): 74.0 ± 51.3 min
Time to Lose Righting Reflex ([3]; 40 mg/kg IP): 2.1 ± 0.3 min
Sleeping Time ([3]; 80 mg/kg IP): 106.6 ± 99.2 min
Time to Lose Righting Reflex ([3]; 80 mg/kg IP): 1.9 ± 0.4 min
LD50 ([4]; intravenous injection): 306 mg/kg
LD50 ([4]; ip, intraperitoneal injection): 1120 mg/kg
LD50 ([4]; oral gavage): 769 mg/kg

Source: patent publication US20130202698A1 (NANJING SANHOME PHARMACEUTICAL CO., LTD., priority 2005, published 2013)
